Reference: ChEMBL document CHEMBL1124484, “Effects of 8-phenyl and 8-cycloalkyl substituents on the activity of mono-, di-, and trisubstituted alkylxanthines with substitution at the 1-, 3-, and 7-positions” (J Med Chem, 1989)

How the values were obtained:
[1] = target: Adenosine A2 receptor (Homo sapiens, UniProt P29275+P29274)
Description: Inhibition of the stimulation by 5'-(N-ethylcarbamoyl) adenosine of adenyl cyclase via adenosine A2 receptor in human platelet membranes.

[2] = target: T1, Adenosine receptor A1 (Rattus norvegicus, UniProt P25099); assay: Inhibition of 1 nM [3H]- N6 -(phenylisopropyl) adenosine binding to Adenosine A1 receptor in rat fat cell membrane; type: cell-based
T1 sequence (P25099 whole entry): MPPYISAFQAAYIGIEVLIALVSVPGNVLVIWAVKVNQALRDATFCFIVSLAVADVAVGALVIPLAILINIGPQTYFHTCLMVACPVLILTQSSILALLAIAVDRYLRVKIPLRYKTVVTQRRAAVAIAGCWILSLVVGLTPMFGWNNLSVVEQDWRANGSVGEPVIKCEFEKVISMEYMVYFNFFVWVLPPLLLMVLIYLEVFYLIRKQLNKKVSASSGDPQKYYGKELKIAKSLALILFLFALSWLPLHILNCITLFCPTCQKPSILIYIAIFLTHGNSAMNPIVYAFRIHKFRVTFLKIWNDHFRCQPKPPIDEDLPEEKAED

[3] = target: T1, Adenosine receptor A1; assay: Inhibition of 1 nM [3H]- N6-(phenylisopropyl) adenosine binding to Adenosine A1 receptor in rat cerebral cortical membranes; type: cell membranes, Membrane
[4] = target: Adenosine A2 receptor (Rattus norvegicus, UniProt P29276+P30543); conditions: pc-12
Description: Inhibition of the stimulation by 5'-(N-ethylcarbamoyl) adenosine of adenyl cyclase via Adenosine A2 receptor in rat PC12 membranes

[5] = target: T1, Adenosine receptor A1; assay: Inhibition of […] nM [3H]- N6- (phenylisopropyl) adenosine binding to Adenosine A1 receptor in rat cerebral cortical membranes; I = Inactive; type: cell membranes, Membrane
[6] = target: T1, Adenosine receptor A1; assay: Inhibition of N6-(phenylisopropyl)adenosine-elicited inhibition of adenylate cyclase at Adenosine A1 receptor in rat fat cell membrane; I =inactive
[7] = target: T1, Adenosine receptor A1; assay: Inhibition of […] nM [3H]- N6- (phenylisopropyl) adenosine binding to A1 adenosine receptor in rat cerebral cortical membranes; type: cell membranes, Membrane
[8] = target: T1, Adenosine receptor A1; assay: Inhibition of N6-(phenylisopropyl)adenosine-elicited inhibition of adenylate cyclase at A1 adenosine receptor in rat fat cell membrane
[9] = target: T1, Adenosine receptor A1; assay: Inhibition of […] nM [3H]- N6- (phenylisopropyl) adenosine binding to Adenosine A1 receptor

| Ki [1] | Ki [2] | Ki [3] | Ki [4] | SMILES | also measured |
| --- | --- | --- | --- | --- | --- |
| 1.5 µM | – | – | – | Cn1c(=O)c2nc(-c3ccc(C(=O)O)cc3)[nH]c2n(C)c1=O | – |
| – | 1.6 µM | 0.71 µM | – | CCCn1c(=O)c2nc[nH]c2n(CCC)c1=O | – |
| – | 0.0059 µM | – | – | CCCn1c(=O)c2[nH]c(-c3ccccc3)nc2n(CCC)c1=O | – |
| 2.3 µM | – | – | – | CC(C)CCn1c(=O)c2nc(-c3ccccc3)[nH]c2n(CC(C)C)c1=O | – |
| 2.1 µM | 4.9 µM | 15 µM | 5.6 µM | CCCn1c(=O)c2c(nc(-c3ccc(S(=O)(=O)O)cc3)n2C)n(CCC)c1=O | – |
| 6.5 µM | – | 1.6 µM | – | CC(C)CCn1c(=O)c2nc[nH]c2n(CC(C)C)c1=O | – |
| 11 µM | – | 9.8 µM | – | CCCn1c(=O)[nH]c(=O)c2[nH]c(-c3ccccc3)nc21 | – |
| 150 µM | – | 61 µM | – | Cn1c(=O)c2c(nc(-c3ccc(C(=O)O)cc3)n2C)n(C)c1=O | – |
| 57 µM | – | – | 150 µM | Cn1c(=O)c2c(nc(-c3ccc(S(=O)(=O)O)cc3)n2C)n(C)c1=O | Ki [5]: Not Active; Ki [6]: Not Active |
| 14 µM | – | 15 µM | – | Cn1c(=O)c2c(nc(-c3ccccc3)n2C)n(C)c1=O | – |
| 25 µM | – | 43 µM | – | COC(=O)c1ccc(-c2nc3c(c(=O)n(C)c(=O)n3C)n2C)cc1 | – |
| 1.1 µM | – | 0.85 µM | – | CCCn1c(=O)[nH]c(=O)c2[nH]c(C3CCCCC3)nc21 | – |
| 26 µM | – | 3.1 µM | – | CCCn1c(=O)c2c(nc(-c3ccc(C(=O)OC)cc3)n2C)n(CCC)c1=O | – |
| 0.085 µM | 4.2 µM | – | 1 µM | CCCn1c(=O)c2c(nc(C3CCCCC3)n2C)n(CCC)c1=O | – |
| 0.22 µM | – | – | – | CCCn1c(=O)c2c(nc(C3CCCC3)n2C)n(CCC)c1=O | – |
| 2.4 µM | – | 2.3 µM | – | CCCn1c(=O)c2c(nc(-c3ccccc3)n2C)n(CCC)c1=O | – |
| 0.02 µM | 0.036 µM | 0.067 µM | 0.073 µM | CCCn1c(=O)[nH]c2[nH]c(-c3ccccc3)nc2c1=O | – |
| 13 µM | – | 4.8 µM | – | CCCn1c(=O)c2c(nc(-c3ccc(C(=O)O)cc3)n2C)n(CCC)c1=O | – |
| 2.8 µM | 12 µM | 3.4 µM | 5.3 µM | CCCn1c(=O)c2c(ncn2C)n(CCC)c1=O | – |
| 0.52 µM | – | 1.2 µM | – | CC(C)CCn1c(=O)c2nc(-c3ccc(S(=O)(=O)O)cc3)[nH]c2n(CC(C)C)c1=O | – |
| 14 µM | – | 57 µM | – | CCCn1c(=O)[nH]c(=O)c2[nH]c(-c3ccc(C(=O)O)cc3)nc21 | – |
| 2.7 µM | 33 µM | 58 µM | 17 µM | CCCn1c(=O)[nH]c(=O)c2[nH]c(-c3ccc(S(=O)(=O)O)cc3)nc21 | – |
| 1.9 µM | 0.43 µM | 0.14 µM | 11 µM | CCCn1c(=O)c2nc(-c3ccc(S(=O)(=O)O)cc3)[nH]c2n(CCC)c1=O | – |
| 2.4 µM | 14.9 µM | 33 µM | 3.8 µM | Cn1c(=O)c2c(nc(C3CCCC3)n2C)n(C)c1=O | – |
| – | – | 0.2 µM | – | CCCn1c(=O)c2nc(-c3ccc(C(=O)O)cc3)[nH]c2n(CCC)c1=O | – |
| 5.5 µM | – | – | 5 µM | Cn1c(=O)c2nc(-c3ccc(S(=O)(=O)O)cc3)[nH]c2n(C)c1=O | – |
| 0.86 µM | – | – | 0.25 µM | Cn1c(=O)[nH]c2[nH]c(-c3ccccc3)nc2c1=O | Ki [7]: 0.3 µM; Ki [8]: 0.13 µM |
| 1.9 µM | – | – | – | Cn1c(=O)[nH]c2[nH]cnc2c1=O [1-METHYLXANTHINE] | Ki [9]: 17 µM |
| 1.9 µM | – | – | 1.6 µM | Cn1c(=O)c2nc(-c3ccccc3)[nH]c2n(C)c1=O [8-PHENYL THEOPHYLLINE] | – |

| SMILES | Ki [1] | Ki [2] | Ki [3] | Ki [4] | also measured |
| --- | --- | --- | --- | --- | --- |
| Cn1c(=O)c2c(nc(C3CCCCC3)n2C)n(C)c1=O | 0.19 µM | – | – | – | – |
| Cn1c(=O)c2nc(C3CCCCC3)[nH]c2n(C)c1=O | 0.15 µM | 0.041 µM | 0.11 µM | 0.45 µM | – |
| Cn1c(=O)[nH]c(=O)c2[nH]cnc21 [3-METHYLXANTHINE] | 240 µM | – | 35 µM | – | – |
